Test results as given in patent US10022442B2, “Pyrazolopyrimidine compounds” (GlaxoSmithKline LLC, priority 2012, dated 2018).
Counter-ions that a name gives are not always drawn.

Legend:
Interferon-α = assay: Induction of Interferon-α using fresh human whole blood (WB); type: cell-based; settings: three donors, overnight incubation, cytokine released as % of 2 μM resiquimod control, read-out: mean pEC50 for IFNα (converted)
Description: (§1) Assay for the Induction of Interferon-α and TNF-α using Fresh Human Whole Blood (WB)
(§2) Compounds were prepared at 100× required concentration in DMSO in flat-bottom microtitre plates at a volume of 1.5 μL. Columns 1-10 contained a 1 in 4 serial dilution of the test compound. Included on each plate was a serial dilution of the TLR7/8 agonist resiquimod as a standard and Column 11 contained 1.5 μl of 200 μM resiquimod (giving a 2 μM final concentration, used to define the approximate maximal response to resiquimod). Each compound was assayed in duplicate for each donor.
(§3) Incubation and Assays for Interferon-α and TNF-α
(§4) Blood samples from three human donors were collected into sodium heparin (10 U/ml). 150 μl of whole Blood was dispensed into Col 1 to 11 of assay plates containing 1.5 μl of test compound or standard in DMSO. Plates were placed in an incubator overnight (37° C., 95% air, 5% CO2). Following the overnight incubation, plates were removed from the incubator & mixed on an orbital shaker for approximately 1 minute. 100 μl of 0.9% saline was added to each well and the plates mixed again on an orbital shaker. Plates were then centrifuged (2500 rpm, 10 mins), after which a sample of plasma was removed using a Biomek FX and assayed for both IFN-α and TNF-α using the MSD (Mesoscale Discovery) electrochemiluminescence assay platform. The IFN-α assay was carried out similarly to that described above. The TNF-α assay was carried out as per kit instructions (Cat No K111BHB).
(§5) Cytokine released was expressed as a percentage of the 2 μM resiquimod control (column 11). This percentage was plotted against compound concentration and the pEC50 for the response determined by non-linear least squares curve fitting. For the IFN-α responses, generally a 4 parameter logistic model was selected. For the TNF responses where a clear maximum response was obtained (i.e. a well defined plateau in the response was observed) then a 4 parameter model was generally used. If the upper asymptote of the curve wasn't well defined then the curve fitting was generally constrained to a maximal response of 100% (i.e. to the response to 2 μM resiquimod) or to the response of the highest concentration tested if this was greater than the resiquimod response. Some curves were bell shaped for one or both cytokines and the cytokine data on the down slope of the bell shaped response (i.e. concentrations above those giving the maximal response) were generally excluded from the fit, usually with the exception of the concentration immediately above the peak response. Curve fitting thus concentrated on the up slope of the dose response curve.

TNF-α = assay: Induction of TNF-α using fresh human whole blood (WB); type: cell-based; settings: three donors, overnight incubation, cytokine released as % of 2 μM resiquimod control, read-out: mean pEC50 for TNF-α (converted)
Description: as §1, §2, §3, §4, §5

SMILES	EC50 (Interferon-α)	EC50 (TNF-α)
CCCCc1nc(N)c2[nH]nc(CCCCCN3CC[C@H](F)C3)c2n1 [Example 12, (S)-5-Butyl-3-(5-(3-fluoropyrrolidin-1-yl)pentyl)-1H-pyrazolo[4,3-d]pyrimidin-7-amine]	≤ 1260 nM	≥ 3980 nM
CCCCc1nc(N)c2[nH]nc(CCCCCN3CCCC3)c2n1 [Example 6, 5-Butyl-3-(5-(pyrrolidin-1-yl)pentyl)-1H-pyrazolo[4,3-d]pyrimidin-7-amine]	≤ 1260 nM	≥ 3980 nM
CCCCc1nc(N)c2[nH]nc(CCCCCN3CC[C@@H](F)C3)c2n1 [Example 14, (R)-5-Butyl-3-(5-(3-fluoropyrrolidin-1-yl)pentyl)-1H-pyrazolo[4,3-d]pyrimidin-7-amine]	≤ 1260 nM	≥ 3980 nM
CCCCc1nc(N)c2[nH]nc(CCCCCCCN3CCCC3)c2n1 [Example 8, 5-Butyl-3-(7-(pyrrolidin-1-yl)heptyl)-1H-pyrazolo[4,3-d]pyrimidin-7-amine]	≤ 1260 nM	≥ 3980 nM
CCCCc1nc(N)c2[nH]nc(CCCCCCN3CCCCCC3)c2n1 [Example 9, 3-(6-(Azepan-1-yl)hexyl)-5-butyl-1H-pyrazolo[4,3-d]pyrimidin-7-amine]	≤ 1260 nM	≥ 3980 nM
CCCCc1nc(N)c2[nH]nc(CCCCCN3CCC(F)CC3)c2n1 [Example 18, 5-Butyl-3-(5-(4-fluoropiperidin-1-yl)pentyl)-1H-pyrazolo[4,3-d]pyrimidin-7-amine]	≤ 1260 nM	≥ 3980 nM
CCCCc1nc(N)c2[nH]nc(CCCCCN3CCCCC3)c2n1 [Example 5, 5-Butyl-3-(5-(piperidin-1-yl)pentyl)-1H-pyrazolo[4,3-d]pyrimidin-7-amine]	≤ 1260 nM	≥ 3980 nM
COCCc1nc(N)c2[nH]nc(CCCCCCN3CCCC3)c2n1 [Example 4, 5-(2-Methoxyethyl)-3-(6-(pyrrolidin-1-yl)hexyl)-1H-pyrazolo[4,3-d]pyrimidin-7-amine]	≤ 1260 nM	≥ 3980 nM
CCCCc1nc(N)c2[nH]nc(CCCCCCN3CCC(O)CC3)c2n1 [Example 15, 1-(6-(7-Amino-5-butyl-1H-pyrazolo[4,3-d]pyrimidin-3-yl)hexyl)piperidin-4-01]	≤ 1260 nM	≥ 3980 nM
COCCc1nc(N)c2[nH]nc(CCCCCCN3CCCCC3)c2n1 [Example 2, 5-(2-Methoxyethyl)-3-(6-(piperidin-1-yl)hexyl)-1H-pyrazolo[4,3-d]pyrimidin-7-amine]	≤ 1260 nM	≥ 3980 nM
CCCCc1nc(N)c2[nH]nc(CCCCCCN3CC[C@H](F)C3)c2n1 [Example 11, (S)-5-Butyl-3-(6-(3-fluoropyrrolidin-1-yl)hexyl)-1H-pyrazolo[4,3-d]pyrimidin-7-amine]	≤ 1260 nM	≥ 3980 nM
CCCCc1nc(N)c2[nH]nc(CCCCCN3CCCCCC3)c2n1 [Example 10, 3-(5-(Azepan-1-yl)pentyl)-5-butyl-1H-pyrazolo[4,3-d]pyrimidin-7-amine]	≤ 1260 nM	≥ 3980 nM
CCCCc1nc(N)c2[nH]nc(CCCCCN3CCC(O)CC3)c2n1 [Example 16, 1-(5-(7-Amino-5-butyl-1H-pyrazolo[4,3-d]pyrimidin-3-yl)pentyl)piperidin-4-01]	≤ 1260 nM	≥ 3980 nM
CCCCc1nc(N)c2[nH]nc(CCCCCCN3CCC(F)CC3)c2n1 [Example 17, 5-Butyl-3-(6-(4-fluoropiperidin-1-yl)hexyl)-1H-pyrazolo[4,3-d]pyrimidin-7-amine formate]	≤ 1260 nM	≥ 3980 nM
CCCCc1nc(N)c2[nH]nc(CCCCCCCN3CCCCC3)c2n1 [Example 7, 5-Butyl-3-(7-(piperidin-1-yl)heptyl)-1H-pyrazolo[4,3-d]pyrimidin-7-amine]	≤ 1260 nM	≥ 3980 nM
CCCCc1nc(N)c2[nH]nc(CCCCCCN3CCCCC3)c2n1 [Example 1, 5-Butyl-3-(6-(piperidin-1-yl)hexyl)-1H-pyrazolo[4,3-d]pyrimidin-7-amine formate]	≤ 1260 nM	≥ 3980 nM
CCCCc1nc(N)c2[nH]nc(CCCCCCN3CC[C@@H](F)C3)c2n1 [Example 13, (R)-5-Butyl-3-(6-(3-fluoropyrrolidin-1-yl)hexyl)-1H-pyrazolo[4,3-d]pyrimidin-7-amine formate]	≤ 1260 nM	≥ 3980 nM
